Values quoted from earlier work in patent publication US20240124437A1, “INJECTABLE LURASIDONE SUSPENSION AND PREPARATION METHOD THEREFOR” (Sichuan Kelun Pharmaceutical Research Institute Co., Ltd., priority 2021, published 2024).

Conditions: oral tablets

Compound: O=C1[C@@H]2[C@H]3CC[C@H](C3)[C@@H]2C(=O)N1C[C@@H]1CCCC[C@H]1CN1CCN(c2nsc3ccccc23)CC1 [lurasidone]
- oral bioavailability: 9%-19%
